pIC50: −log10 of the molar value. Where “and” joins values, the source holds several entries; their conditions need not be identical. Equal entries are not always repeated.

The pIC50 is −log10 of the IC50, conventionally taken in molar units.

Data set [1] has as its target T1, CGT in CHO cells stably expressing human UGT8 (Homo sapiens, UniProt Q16880).
T1 construct: expressed in transfected cells; host or cells: CHO cells stably expressing human UGT8
T1 sequence (Q16880 21-541): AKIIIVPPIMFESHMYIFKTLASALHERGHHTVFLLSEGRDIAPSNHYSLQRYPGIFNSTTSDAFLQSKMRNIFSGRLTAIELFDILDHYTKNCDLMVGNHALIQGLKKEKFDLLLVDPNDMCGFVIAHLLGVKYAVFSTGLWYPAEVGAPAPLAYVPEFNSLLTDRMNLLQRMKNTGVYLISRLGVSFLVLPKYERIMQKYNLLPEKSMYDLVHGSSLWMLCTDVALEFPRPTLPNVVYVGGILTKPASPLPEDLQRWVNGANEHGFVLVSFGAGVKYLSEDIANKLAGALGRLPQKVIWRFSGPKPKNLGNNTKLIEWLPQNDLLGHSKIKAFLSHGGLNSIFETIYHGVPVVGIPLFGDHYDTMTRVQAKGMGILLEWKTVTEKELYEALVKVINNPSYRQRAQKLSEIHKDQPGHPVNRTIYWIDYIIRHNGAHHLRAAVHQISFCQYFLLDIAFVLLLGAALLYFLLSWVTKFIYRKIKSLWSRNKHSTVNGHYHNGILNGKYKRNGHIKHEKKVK
Put plainly: CGT cellular assay (intact-cell assay). The class given is cell-based. Here is the method: 3 × 10^4 CHO cells stably expressing human UGT8 were seeded in a 96-well TC plate in F12K + 10% FBS (Invitrogen, qualified, Australia, 10099141) and incubated at 37 °C, 5% CO2 overnight. Media was removed and compounds, diluted in F12K + 5% FBS (0.1% DMSO final) containing 1 µM eliglustat to prevent NBD-glucosylceramide formation, were added to the cells and incubated 2 h at 37 °C. NDB-(2R-OH)-C6-ceramide (BioMarin) in F12K + 5% FBS + 11% BSA was added to a final substrate concentration of 10 µM in 1% BSA and incubated 1 h at 37 °C before extracting in methanol/0.5% acetic acid containing N-dodecanoyl-NBD-galactosylceramide IS (1 µM). After 2 h shaking, the solution was centrifuged at 4000 rpm for 30 min, and 80 µL of supernatant was transferred to 40 µL H2O, mixed and centrifuged at 4000 rpm for 10 min. NDB-(2R-OH)-C6-galactosylceramide product was quantified by a Shimadzu ultra-fast liquid chromatography system (Shimadzu) coupled to an API 4000 mass spectrometer in ESI negative mode (Applied Biosystems) using a Kinetex C18 column (50 × 2.1 mm, 2.6 µm, 100 Å) (Phenomenex) with 0.1% formic acid and acetonitrile supplemented with 0.1% formic acid.

The subject of another data set is Twitcher mice. Put plainly: Twitcher mouse brain immunostaining and cytokine analysis. Format: in vivo. The conditions noted are these: 0.15 mg/kg IP three times per week, PND3 to PND28.
The next data set deals with T2, rhARSA (Homo sapiens, UniProt P15289).
T2 construct: purchased R&D systems
T2 sequence (P15289 19-507): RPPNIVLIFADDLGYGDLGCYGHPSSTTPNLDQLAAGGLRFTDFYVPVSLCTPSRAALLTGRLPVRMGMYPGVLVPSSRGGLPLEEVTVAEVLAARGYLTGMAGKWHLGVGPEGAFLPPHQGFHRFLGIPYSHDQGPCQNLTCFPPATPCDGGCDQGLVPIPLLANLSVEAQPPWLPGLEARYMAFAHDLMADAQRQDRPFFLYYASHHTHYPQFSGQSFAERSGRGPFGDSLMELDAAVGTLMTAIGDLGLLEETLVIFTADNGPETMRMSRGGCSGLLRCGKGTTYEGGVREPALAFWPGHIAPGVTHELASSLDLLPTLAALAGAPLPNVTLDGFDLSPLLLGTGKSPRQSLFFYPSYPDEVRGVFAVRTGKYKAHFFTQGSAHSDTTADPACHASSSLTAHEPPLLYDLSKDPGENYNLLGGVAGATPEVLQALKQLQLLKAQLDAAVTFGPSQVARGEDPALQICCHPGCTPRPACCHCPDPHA
Description: Arylsulfatase A assay. The note with it: read-out: ARSA IC50. Format: biochemical. Here is the method: The ARSA assay was modified from a previously reported method. The reaction mixture contained 40 ng of rhARSA (R&D systems), various concentrations of inhibitor, and 6.2 µM N-octadecanoyl-d3-sulfatide substrate in reaction buffer (0.08 M sodium acetate at pH 4.5, 2.08 g/L sodium taurodeoxycholate, 33 mM MnCl2, 0.4% DMSO) and was incubated for 16 h at 37 °C. The reaction was terminated with equal volume MeOH:ethyl acetate (EA). N-octadecanoyl-d35-psychosine (Matreya) was added as the IS, together with 400 µL EA and 200 µL H2O. After centrifugation, 200 µL of the EA layer was dried under a stream of N2 and resuspended in 100 µL MeOH before quantifying the N-octadecanoyl-d3-galactosylceramide product using a reported UPLC–MS/MS method.

The subject of a further data set is wild-type C57BL/6 mice. Description: PND3 wild-type mouse repeat dose study: tolerability. Format: in vivo.

Description for Twitcher mice: Five sections from a one in four series of sagittal brain sections from each mouse were stained on slides using a modified immunofluorescence protocol for the following antibodies—astrocytes (rabbit anti-GFAP, 1:1000, DAKO Z0334), microglia (rat anti-mouse CD68, 1:400, Bio-Rad MCA1957), and myelin basic protein (MBP) (rat anti-MBP, 1:500, Merck Millipore MAB386). Briefly, 40 µm sagittal sections were mounted on Superfrost Plus slides (Fisher Scientific), air-dried for 30 min, and blocked in 15% normal goat serum solution (Vector Labs, S-1000) in 2% TBS-T (1 × Tris Buffered Saline, pH 7.6 with 2% Triton-X100, Fisher Scientific) for 1 h. Slides were then incubated in primary antibody in 10% serum solution in 2% TBS-T for 2 h. Slides were washed three times in 1×TBS and incubated in fluorescent Alexa-Fluor labelled IgG secondary antibodies (Alexa-Fluor goat anti-rabbit 488, Invitrogen A-11008 and goat anti-rat 546, Invitrogen A-11081) in 10% serum solution in 2% TBS-T for 2 h, washed three times in 1×TBS, and incubated in a 1 × solution of TrueBlack lipofuscin autofluorescence quencher (Biotium, Fremont, CA, #23,007) in 70% ethanol for 2 min before rinsing in 1×TBS. Slides were coverslipped in fluoromount-G mounting medium with DAPI (Southern Biotech). To analyze the glial activation (GFAP-positive astrocytes + CD68-positive microglia) as well as MBP staining of punctate bodies in the cerebellar white matter, a semiautomated thresholding image analysis method was used with Image-Pro Premier software (Media Cybernetics). Briefly, this involved the collection of slide-scanned images at 5 × magnification for a one in four series of 3 sections per animal followed by demarcation of all regions (in this case the white matter of the cerebellum) of interest while maintaining the lamp intensity, video camera setup, and calibration constant throughout image capturing. Images were subsequently analyzed using Image-Pro Premier using an appropriate threshold that selected the foreground immunoreactivity above background. This threshold was then applied as a constant to all subsequent images analyzed per batch of animals and reagent used to determine the specific area of immunoreactivity for each antigen. Image densitometry for the average pixel luminance data was also gathered for MBP staining of the cerebellar white matter due to the higher density of staining. Slide-scanned images at 5 × magnification were collected for a one in forty-eight series of sections per animal followed by collecting the mean luminance data across all pixels from the regions of interest delineated using Image-Pro Premier.
Cytokine/chemokine analyses were performed on the brains from the same animals used for immunofluorescent imaging. […]

In the case of `C[C@H]1N(c2ccc(Br)cc2)C(=O)N(c2ccc(Br)cc2)C1(O)c1cccc(OC(F)(F)F)c1` (some centres unmarked) [S202], the negative logarithm of the IC50 (pIC50) in data set [1] is 8.70 and 8.44 and 8.52. In addition, in the data set on Twitcher mice, the “CD68-positive macrophages in brain sections” value was “trend toward reduction”, the “GROA level in brain homogenates” value is on record as “reduced the levels”, the “MCP-1 level in brain homogenates” value is listed as “reduced the levels” and the “marker of astrocytosis (GFAP) in brain sections” value was “trend toward reduction”. Besides, the negative-log IC50 (pIC50) at rhARSA was below 4.30. Moreover, the phenotypes entry with wild-type C57BL/6 mice (daily IP PND3 to PND40, above 0.5 mg/kg) is “reduced weight gain, mild hind limb gait abnormalities, and some animal deaths”. Further, the tolerability result in the data set on wild-type C57BL/6 mice (daily IP PND3 to PND40, lower doses) is “well tolerated at lower doses”.
